In brackets after ≈: the same amount, converted by molar mass.
Assays:
[1] = system: Neisseria gonorrhoeae, GC525 (NG-2888); assay: in-vitro antibacterial activity, microbroth dilution MIC susceptibility testing; assay type: cell-based; details: Neisseria gonorrhoeae, microbroth dilution in gonococcal broth, 20-24 hours at 35 C, lowest concentration preventing visible growth, read-out: MIC
How it was run: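 Broth microdilution in gonococcal broth, inoculum ~5×10^5 cfu/mL, 20-24 h at 35 C in humidified CO2; compounds from 2 mg/mL DMSO stocks over 64-0.06 and 1-0.001 ug/mL two-fold series. MIC is the lowest concentration preventing visible growth, read visually; duplicates differing one well give the lower value, two wells the middle value.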

MIC [1] [µg/mL] | melting point | Compound
> 64 | 243 to 248 °C | CCNC(=O)Nc1nc2cc(-c3cnc(OC)nc3)ccn2n1 [Example 3, 1-Ethyl-3-[7-(2-methoxy-pyrimidin-5-yl)-[1,2,4]triazolo[1,5-a]pyridin-2-yl]-urea]
16 (≈ 47 µM) | 211 to 213 °C | CCNC(=O)Nc1nc2cc(-c3cccnc3)cc(C(=O)OC)n2n1 [Example 6, 2-(3-Ethyl-ureido)-7-pyridin-3-yl-[1,2,4]triazolo[1,5-a]pyridine-5-carboxylic acid methyl ester]
2 (≈ 5.89 µM) | > 300 °C | CCNC(=O)Nc1nc2cc(-c3cccnc3)cc(C(=O)NC)n2n1 [Example 7, 2-(3-Ethyl-ureido)-7-pyridin-3-yl-[1,2,4]triazolo[1,5-a]pyridine-5-carboxylic acid methylamide]
1 (≈ 2.82 µM) | 317 to 321 °C | CCNC(=O)Nc1nc2cc(-c3cncnc3)cc(C(=O)NCC)n2n1 [Example 19, N-Ethyl-2-{[(ethylamino)carbonyl]amino}-7-pyrimidin-5-yl[1,2,4]triazolo[1,5-a]pyridine-5-carboxamide]
1 (≈ 2.52 µM) | 328 to 334 °C | CCNC(=O)Nc1nc2cc(-c3cnc(N(C)C)nc3)cc(C(=O)NCC)n2n1 [Example 20, 7-[2-(Dimethylamino)pyrimidin-5-yl]-N-ethyl-2-{[(ethylamino)carbonyl]amino}[1,2,4]triazolo[1,5-a]pyridine-5-carboxamide]
> 64 | 238 to 241 °C | CCNC(=O)Nc1nc2cc(-c3c(C)noc3C)cc(C(=O)NCC)n2n1 [Example 21, 7-(3,5-Dimethylisoxazol-4-yl)-N-ethyl-2-{[(ethylamino)carbonyl]amino}[1,2,4]triazolo[1,5-a]pyridine-5-carboxamide]
> 64 | 318 to 321 °C | CCNC(=O)Nc1nc2cc(-c3cccnc3)cc(-c3nnc(C)o3)n2n1 [Example 23, N-Ethyl-N′-[5-(5-methyl-1,3,4-oxadiazol-2-yl)-7-pyridin-3-yl[1,2,4]triazolo[1,5-a]pyridin-2-yl]urea]
16 (≈ 40.6 µM) | 248 to 250 °C | CCNC(=O)Nc1nc2cc(-c3cccnc3)cc(N3CCC(N(C)C)C3)n2n1 (stereo not drawn) [Example 130, 1-[5-(3-Dimethylamino-pyrrolidin-1-yl)-7-pyridin-3-yl-[1,2,4]triazolo[1,5-a]pyridin-2-yl]-3-ethyl-urea]
0.25 (≈ 0.68 µM) | 298 to 300 °C | CCNC(=O)Nc1nc2cc(-c3cccnc3)cc(N3CCOCC3)n2n1 [Example 133, 1-Ethyl-3-(5-morpholin-4-yl-7-pyridin-3-yl-[1,2,4]triazolo[1,5-a]pyridin-2-yl)-urea]
32 (≈ 87.1 µM) | 296 to 298 °C | CCNC(=O)Nc1nc2cc(-c3cccnc3)cc(N3CCC(O)C3)n2n1 (stereo not drawn) [Example 134, 1-Ethyl-3-[5-(3-hydroxy-pyrrolidin-1-yl)-7-pyridin-3-yl-[1,2,4]triazolo[1,5-a]pyridin-2-yl]-urea]
32 (≈ 86.6 µM) | 200 to 202 °C | CCNC(=O)Nc1nc2cc(-c3cccnc3)cc(OCCN(C)C)n2n1 [Example 141, 1-[5-(2-Dimethylamino-ethoxy)-7-pyridin-3-yl-[1,2,4]triazolo[1,5-a]pyridin-2-yl]-3-ethyl-urea]
32 (≈ 80.9 µM) | 189 to 192 °C (dec.) | CCNC(=O)Nc1nc2cc(-c3cccnc3)cc(OCCN3CCCC3)n2n1 [Example 143, N-Ethyl-N′-[7-pyridin-3-yl-5-(2-pyrrolidin-1-ylethoxy)[1,2,4]triazolo[1,5-a]pyridin-2-yl]urea]
